According to patent US7834030B2, “Phenyl-[1,2,4]-oxadiazol-5-one derivatives, pharmaceutical compositions and therapeutic use thereof” (Sanofi-Aventis, priority 2005, dated 2010):
pEC50: −log10 of the molar value.

Biological target: T1, human PPARalpha (Homo sapiens, UniProt Q07869)
T1 construct: human PPARalpha receptor (amino acids S167-Y468); expressed in transfected cells; plasmid pcDNA3
T1 sequence (Q07869 167-468): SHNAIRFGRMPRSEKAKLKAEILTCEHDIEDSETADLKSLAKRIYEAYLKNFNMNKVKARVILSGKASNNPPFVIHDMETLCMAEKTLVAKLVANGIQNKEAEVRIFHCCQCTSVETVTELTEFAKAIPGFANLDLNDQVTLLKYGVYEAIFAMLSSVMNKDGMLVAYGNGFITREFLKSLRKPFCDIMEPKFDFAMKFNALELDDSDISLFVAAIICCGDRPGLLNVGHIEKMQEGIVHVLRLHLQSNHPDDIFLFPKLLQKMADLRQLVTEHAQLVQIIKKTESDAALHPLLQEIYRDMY
Experiment: cellular PPARalpha assay (GAL4 luciferase reporter, stably transfected HEK cell line)
Format: cell-based
Method: The activity of the compounds was tested through the determination of EC50 values of PPAR agonists in the cellular PPARalpha assay. The potency of substances which bind to human PPARalpha and activate it in an agonistic manner was analyzed using a stably transfected HEK cell line (HEK=human embryo kidney) which is referred to here as PPARalpha reporter cell line. It contains two genetic elements, a luciferase reporter element (pdeltaM-GAL4-Luc-Zeo) and a PPARalpha fusion protein (GR-GAL4-humanPPARalpha-LBD) which mediates expression of the luciferase reporter element depending on a PPARalpha ligand. The stably and constitutively expressed fusion protein GR-GAL4-humanPPARalpha-LBD binds in the cell nucleus of the PPARalpha reporter cell line via the GAL4 protein portion to the GAL4 DNA binding motifs 5′-upstream of the luciferase reporter element which is stably integrated in the genome of the cell line. There is only weak expression of the luciferase reporter gene in the absence of a PPARalpha ligand if fatty acid-depleted fetal calf serum (cs-FCS) is used in the assay. PPARalpha ligands bind and activate the PPARalpha fusion protein and thereby stimulate the expression of the luciferase reporter gene. The luciferase which is formed can be detected by means of chemiluminescence via an appropriate substrate.
The PPARalpha reporter cell line was prepared in two stages. Firstly, the luciferase reporter element was constructed and stably transfected into HEK cells. For this purpose, five binding sites of the yeast transcription factor GAL4 (Accession # AF264724) were cloned in 5′-upstream of a 68 bp-long minimal MMTV promoter (Accession # V01175). The minimal MMTV promoter section contains a CCAAT box and a TATA element in order to enable efficient transcription by RNA polymerase II. The cloning and sequencing of the GAL4-MMTV construct took place in analogy to the description of Sambrook J. et. al. (Molecular cloning, Cold Spring Harbor Laboratory Press, 1989). Then the complete Photinus pyralis gene (Accession # M15077) was cloned in 3′-downstream of the GAL4-MMTV element. After sequencing, the luciferase reporter element consisting of five GAL4 binding sites, MMTV promoter and luciferase gene was recloned into a plasmid which confers zeocin resistance in order to obtain the plasmid pdeltaM-GAL4-Luc-Zeo. This vector was transfected into HEK cells in accordance with the statements in Ausubel, F. M. et al. (Current protocols in molecular biology, Vol. 1-3, John Wiley & Sons, Inc., 1995).
In a second step, the PPARalpha fusion protein (GR-GAL4-humanPPARalpha-LBD was introduced into the stable cell clone described. For this purpose, initially the cDNA coding for the N-terminal 76 amino acids of the glucocorticoid receptor (Accession # P04150) was linked to the cDNA section coding for amino acids 1-147 of the yeast transcription factor GAL4 (Accession # P04386). The cDNA of the ligand-binding domain of the human PPARalpha receptor (amino acids S167-Y468; Accession # S74349) was cloned in at the 3′-end of this GR-GAL4 construct. The fusion construct prepared in this way (GR-GAL4-humanPPARalpha-LBD) was recloned into the plasmid pcDNA3 (Invitrogen) in order to enable constitutive expression therein by the cytomegalovirus promoter. This plasmid was linearized with a restriction endonuclease and stably transfected into the previously described cell clone containing the luciferase reporter element. The finished PPARalpha reporter cell line which contains a luciferase reporter element and constitutively expresses the PPARalpha fusion protein (GR-GAL4-human PPARalpha-LBD) was isolated by selection with zeocin (0.5 mg/ml) and G418 (0.5 mg/ml).
The activity of PPARalpha agonists was determined in a 3-day assay, which is described below: […]

Structure (SMILES) | pEC50
CCC(Oc1ccc(-c2noc(=O)[nH]2)c(Cl)c1)c1sc(-c2ccc(C(F)(F)F)cc2)nc1C (racemic) [Example 4, 3-(2-Chloro-4-{1-[4-methyl-2-(4-trifluoromethyl-phenyl)-thiazol-5-yl]-propoxy}-phenyl)-4H-[1,2,4]oxadiazol-5-one] | 7.92
Cc1nc(-c2ccc(C(F)(F)F)cc2)sc1C(Cc1ccccn1)Oc1ccc(-c2noc(=O)[nH]2)c(Cl)c1 (racemic) [Example 10, 3-(2-Chloro-4-{1-[4-methyl-2-(4-trifluoromethyl-phenyl)-thiazol-5-yl]-2-pyridin-2-yl-ethoxy}-phenyl)-4H-[1,2,4]oxadiazol-5-one] | 5.36
CCC(Oc1ccc(-c2noc(=O)[nH]2)c(C2CC2)c1)c1sc(-c2ccc(C(F)(F)F)cc2)nc1C (racemic) [Example 16, 3-(2-Cyclopropyl-4-{1-[4-methyl-2-(4-trifluoromethyl-Phenyl)-thiazol-5-yl]-propoxy}-phenyl)-4H-[1,2,4]oxadiazol-5-one] | 6.93
Cc1nc(-c2ccc(C(F)(F)F)cc2)sc1C(Oc1ccc(-c2noc(=O)[nH]2)c(Cl)c1)C(F)(F)F (racemic) [Example 20, 3-(2-Chloro-4-{2,2,2-trifluoro-1-[4-methyl-2-(4-trifluoromethyl-phenyl)-thiazol-5-yl]-ethoxy}-phenyl)-4H-[1,2,4]oxadiazol-5-one] | 6.51
Cc1nc(-c2ccc(C(F)(F)F)cc2)sc1C(OCc1ccc(-c2noc(=O)[nH]2)c(F)c1)C(F)(F)F (racemic) [Example 22, 3-(2-Fluoro-4-{2,2,2-trifluoro-1-[4-methyl-2-(4-trifluoromethyl-phenyl)-thiazol-5-yl]-ethoxymethyl}-phenyl)-4H-[1,2,4]oxadiazol-5-one] | 5.58
Cc1nc(-c2ccc(C(F)(F)F)cc2)sc1C(OCc1ccc(-c2noc(=O)[nH]2)c2cccnc12)C(F)(F)F (racemic) [Example 25, 3-(8-{2,2,2-Trifluoro-1-[4-methyl-2-(4-trifluoromethyl-phenyl)-thiazol-5-yl]-ethoxymethyl}-quinolin-5-yl)-4H-[1,2,4]oxadiazol-5-one] | 6.26
Cc1nc(-c2ccc(C(F)(F)F)cc2)sc1C(OCc1ccc(-c2noc(=O)[nH]2)c(Cl)n1)C(F)(F)F (racemic) [Example 27, 3-(2-Chloro-6-{2,2,2-trifluoro-1-[4-methyl-2-(4-trifluoromethyl-phenyl)-thiazol-5-yl]-ethoxymethyl}-pyridin-3-yl)-4H-[1,2,4]oxadiazol-5-one] | 5.92
Cc1nc(-c2ccc(C(F)(F)F)cc2)sc1C(OCc1ccc(-c2noc(=O)[nH]2)cc1)C(F)(F)C1CC1 (racemic) [Example 32, 3-(4-{2-Cyclopropyl-2,2-difluoro-1-[4-methyl-2-(4-trifluoromethyl-phenyl)-thiazol-5-yl]-ethoxymethyl}-phenyl)-4H-[1,2,4]oxadiazol-5-one] | < 4.48
CCCCC(Cc1ccc(-c2noc(=O)[nH]2)c(F)c1)c1sc(-c2ccc(C(F)(F)F)cc2)nc1C (racemic) [Example 34, 3-(2-Fluoro-4-{2-[4-methyl-2-(4-trifluoromethyl-phenyl)-thiazol-5-yl]-hexyl}-phenyl)-4H-[1,2,4]oxadiazol-5-one] | 5.97
CCC(Oc1ccc(-c2noc(=O)[nH]2)c(F)c1)c1sc(-c2ccc(C(F)(F)F)cc2)nc1C (racemic) [Example 35, 3-(2-Fluoro-4-{1-[4-methyl-2-(4-trifluoromethyl-phenyl)-thiazol-5-yl]-propoxy}-phenyl)-4H-1,2,4-oxadiazol-5-one] | 6.57
CCC(Oc1ccc(-c2noc(=O)[nH]2)c(OC(F)F)c1)c1sc(-c2ccc(C(F)(F)F)cc2)nc1C (racemic) [Example 37, 3-(2-Difluoromethoxy-4-{1-[4-methyl-2-(4-trifluoromethyl-phenyl)-thiazol-5-yl]-propoxy}-phenyl)-4H-1,2,4-oxadiazol-5-one] | 6.65
CCC(Oc1ccc(-c2noc(=O)[nH]2)c(OC)c1)c1sc(-c2ccc(C(F)(F)F)cc2)nc1CN1CCC(C(F)(F)F)CC1 (racemic) [Example 42, 3-(2-Methoxy-4-{1-[2-(4-trifluoromethyl-phenyl)-4-(4-trifluoromethyl-piperidin-1-ylmethyl)-thiazol-5-yl]-propoxy}-phenyl)-4H-1,2,4-oxadiazol-5-one] | < 4.48
CCC(Oc1ccc(-c2noc(=O)[nH]2)c(OCC(F)(F)F)c1)c1sc(-c2ccc(C(F)(F)F)cc2)nc1C (racemic) [Example 48, 3-[4-{1-[4-Methyl-2-(4-trifluoromethyl-phenyl)-thiazol-5-yl]-propoxy}-2-(2,2,2-trifluoro-ethoxy)-phenyl]-4H-1,2,4-oxadiazol-5-one] | 7.06
CC[C@@H](Oc1cc(OC)c(-c2noc(=O)[nH]2)cc1F)c1sc(-c2ccc(C(F)(F)F)cc2)nc1C [(+)-40, (+)-3-(5-Fluoro-2-methoxy-4-{(R)-1-[4-methyl-2-(4-trifluoromethyl-phenyl)-thiazol-5-yl]-propoxy}-phenyl)-4H-1,2,4-oxadiazol-5-one] | 6.17
CC[C@@H](Oc1ccc(-c2noc(=O)[nH]2)c(OC(F)F)c1)c1sc(-c2ccc(C(F)(F)F)cc2)nc1CN1CCC(C(F)(F)F)CC1 [(+)-45, (+)-3-(2-Difluoromethoxy-4-{(R)-1-[2-(4-trifluoromethyl-phenyl)-4-(4-trifluoromethyl-piperidin-1-ylmethyl)-thiazol-5-yl]-propoxy}-phenyl)-4H-1,2,4-oxadiazol-5-one] | 5.91
